Reference: article PMC11571797, “Vitamin B6 inhibits activity of Helicobacter pylori adenylosuccinate synthetase and growth of reference and clinical, antibiotic-resistant H. pylori strains” (Journal of Enzyme Inhibition and Medicinal Chemistry, 2024)

Target: T1, adenylosuccinate synthetase (AdSS) (Helicobacter pylori, UniProt P56137)
T1 construct: gene purA
Assay: X-ray crystal structure with IMP ([…] A); enzyme inhibition, GTP-competitive, and time-dependent inactivation (IC50^eq […] without GTP)
Format: biochemical

T1 sequence (P56137 whole entry): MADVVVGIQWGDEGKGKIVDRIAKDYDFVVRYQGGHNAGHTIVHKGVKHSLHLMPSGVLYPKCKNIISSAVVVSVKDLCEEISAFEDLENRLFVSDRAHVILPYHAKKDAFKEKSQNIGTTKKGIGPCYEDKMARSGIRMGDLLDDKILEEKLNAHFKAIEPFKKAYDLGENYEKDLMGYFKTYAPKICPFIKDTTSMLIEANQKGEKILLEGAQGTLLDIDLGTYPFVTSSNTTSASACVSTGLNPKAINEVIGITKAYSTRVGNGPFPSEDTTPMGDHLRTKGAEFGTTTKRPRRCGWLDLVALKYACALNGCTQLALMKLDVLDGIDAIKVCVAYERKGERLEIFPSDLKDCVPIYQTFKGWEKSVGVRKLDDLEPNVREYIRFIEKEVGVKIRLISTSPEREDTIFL

## Cc1ncc(COP(=O)(O)O)c(C=O)c1O [PLP, pyridoxal 5'-phosphate]
  Ki: 6.95 µM
